Patent US11396499B2, “Lysosomal acid lipase assay” (University of Washington, priority 2018, dated 2022)

Assays:
[1] = molecular target: T1, lysosomal acid lipase (LAL) (Homo sapiens, UniProt P38571); assay: Testing potential LAL substrates with DBS; format: biochemical
T1 construct: from tissue; host or cells: dried blood spots (DBS) from healthy adults, healthy children and LAL-deficient patients
T1 sequence (P38571 77-399): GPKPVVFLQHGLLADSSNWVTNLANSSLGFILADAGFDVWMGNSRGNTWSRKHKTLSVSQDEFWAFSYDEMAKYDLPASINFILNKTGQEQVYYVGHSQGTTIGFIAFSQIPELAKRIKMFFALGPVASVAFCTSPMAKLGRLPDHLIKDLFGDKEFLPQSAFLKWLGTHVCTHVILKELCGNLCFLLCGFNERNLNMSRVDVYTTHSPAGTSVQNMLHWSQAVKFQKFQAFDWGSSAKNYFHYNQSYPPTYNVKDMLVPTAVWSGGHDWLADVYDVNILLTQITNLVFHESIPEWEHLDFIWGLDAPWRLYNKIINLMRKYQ
Procedure: Compound 8. Assay cocktail contained 0.69 mM Compound 8, 10 mM internal standard (analog of the product containing an n-hexanoyl amide tail instead of the n-pentanoyl amide tail) in 0.15 M sodium acetate, pH 4.02, containing 0.1% Triton X-100. Assay cocktail (30 mL) was added to a 3 mm DBS punch from a normal adult and 10 mL of 30 mM aqueous Lalistat-2 or H2O was added, and the mixture was incubated at 37° C. for 16 hr in an Eppendorf tube with orbital shaking at 250 rpm. The assay was quenched by addition of 120 mL of acetonitrile. The sample was centrifuged for 5 min at 3000×g, and 120 mL of supernatant was transferred to an autosampler plate. Water (60 mL) was added to the well, and 10 mL was injected for UPLC-MS/MS. Compound 8 product was analyzed by UPLC-MS/MS using the authentic product as a standard to establish UPLC and MS/MS conditions.
Compound 9. Assay cocktail contained 0.3 mM Compound 9 (from a 10 mM DMSO stock) in a 14:1 solution of 0.15 M sodium acetate pH 4.0 1% Triton-X-100 and 0.5% m/v cardiolipin in methanol. […] Compound 9 product was analyzed by UPLC-MS/MS using the authentic product as a standard to establish UPLC and MS/MS conditions.
Compounds 10-13. […] Samples were immediately read on a plate-reader fluorometer with an excitation wavelength of 355 nm and emission wavelength of 460 nm. […]

[2] = molecular target: T1, lysosomal acid lipase (LAL); assay: Previous fluorometric LAL assay (Hamilton et al.) with palmitoyl-4MU with and without Lalistat-2 in DBS; format: biochemical
Source text: LAL is detected in leukocytes or fibroblasts using radiometric, immunologic, or fluorescence assays (The metabolic and molecular bases of inherited disease. 8th Ed. New York (NY): McGraw-Hill; 2001. p. 3827-3387). Hamilton and colleagues recently developed a fluorometric assay to detect LAL in dried blood spots (DBS) (Hamilton et al., Clin Chim Acta 2012; 413:1207-10). The assay is based on the release of 4-methylumbelliferone from its ester with palmitic acid. However, the substrate is not specific for LAL, and the method requires two assays performed in parallel, the first in the presence of a LAL-specific covalent inactivator Lalistat-2. LAL activity is calculated from the difference in these 2 assays.
A concentration of P-PMHC in the mixture of 3 mmol/L was settled on based on a combination of high LAL activity and minimal background. The original assay described by Hamilton et al. (Clin Chim Acta 2012; 413:1207-10) used 40 μL of an aqueous extract of a 3-mm DBS added to 160 μL of assay mixture. To keep the solvent volumes for the liquid-liquid extraction to a minimum, thus avoiding long times for solvent removal, 10 μL of an aqueous extract of a 3-mm DBS punch was added to 30 μL of assay mixture.

Row | specific activity for the LAL component ([2]; 3-mm punch from an identical DBS, previous fluorometric assay with and without Lalistat-2) [µmol/h/L] | fold lower than the activity measured with the UPLC-MS/MS assay ([2]; 466 versus 874 μmol/h/L, identical DBS) [fold] | fraction of the substrate hydrolyzed by esterases/lipases in DBS other than LAL ([2]; DBS) | Molecule | detectable LAL activity when tested with DBS [1]
1 |  |  |  | 4-propyl-8-methyl-7-palmitoyloxycoumarin [Compound 1] | None of these compounds displayed detectable LAL activity
2 | 466 | 1.9 | about one third | CCCCCCCCCCCCCCCC(=O)Oc1ccc2c(C)cc(=O)oc2c1 [palmitoyl-4MU] | displayed measurable LAL activity
